Among the data in ChEMBL document CHEMBL4052759, “Discovery of DS79182026: A potent orally active hepcidin production inhibitor” (Bioorg Med Chem Lett, 2017) are inhibition values, retold here.

For assay [1], the target named is T1, cGMP-dependent protein kinase 1 (Homo sapiens) (UniProt Q13976).
T1 sequence (whole entry): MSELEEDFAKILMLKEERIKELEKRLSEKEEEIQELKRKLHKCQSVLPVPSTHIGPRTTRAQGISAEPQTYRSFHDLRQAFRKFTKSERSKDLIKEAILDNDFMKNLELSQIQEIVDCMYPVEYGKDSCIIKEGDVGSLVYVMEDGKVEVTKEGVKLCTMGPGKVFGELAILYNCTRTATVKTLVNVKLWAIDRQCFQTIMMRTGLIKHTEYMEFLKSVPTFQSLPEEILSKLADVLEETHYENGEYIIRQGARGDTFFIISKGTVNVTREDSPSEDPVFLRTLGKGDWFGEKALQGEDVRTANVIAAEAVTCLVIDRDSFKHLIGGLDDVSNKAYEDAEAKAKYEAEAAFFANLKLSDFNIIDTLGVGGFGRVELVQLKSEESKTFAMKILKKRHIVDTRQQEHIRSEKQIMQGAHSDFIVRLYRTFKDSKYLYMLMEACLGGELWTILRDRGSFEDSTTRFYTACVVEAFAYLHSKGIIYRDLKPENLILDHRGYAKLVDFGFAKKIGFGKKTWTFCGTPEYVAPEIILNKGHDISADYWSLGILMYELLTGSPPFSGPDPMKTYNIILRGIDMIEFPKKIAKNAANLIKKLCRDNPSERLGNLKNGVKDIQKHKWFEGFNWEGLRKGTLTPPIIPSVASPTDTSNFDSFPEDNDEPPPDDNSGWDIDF
In words: Inhibition of PKG-alpha (unknown origin) at 0.078 uM relative to control.

In assay [2] the target is Insulin-like growth factor 1 receptor (Homo sapiens) (UniProt P08069). The assay can be described thus: Inhibition of IGF1R (unknown origin) at 0.078 uM relative to control.
The target in assay [3] is RAF proto-oncogene serine/threonine-protein kinase (Homo sapiens) (UniProt P04049). The assay can be described thus: Inhibition of c-Raf (unknown origin) at 0.078 uM relative to control.
The target in assay [4] is Fibroblast growth factor receptor 1 (Homo sapiens) (UniProt P11362). In words: Inhibition of FGFR1 (unknown origin) at 0.49 uM relative to control.
Assay [5] concerns the target Receptor tyrosine-protein kinase erbB-4 (Homo sapiens) (UniProt Q15303). In words: Inhibition of HER4 (unknown origin) at 0.49 uM relative to control.
Assay [6] deals with Serine/threonine-protein kinase MARK2 (Homo sapiens) (UniProt Q7KZI7). The assay can be described thus: Inhibition of MARK2 (unknown origin) at 0.49 uM relative to control.
The target in assay [7] is Mitogen-activated protein kinase kinase kinase kinase 5 (Homo sapiens) (UniProt Q9Y4K4). In words: Inhibition of KHS1 (unknown origin) at 0.49 uM relative to control.
In assay [8] the target is Serine/threonine-protein kinase 24 (Homo sapiens) (UniProt Q9Y6E0). In words: Inhibition of MST3 (unknown origin) at 0.49 uM relative to control.
For assay [9], the target named is Protein kinase C beta type (Homo sapiens) (UniProt P05771). The assay can be described thus: Inhibition of PKC-beta2 (unknown origin) at 0.49 uM relative to control.
Assay [10] is filed under the species Homo sapiens. In words: Inhibition of p70S6K (unknown origin) at 0.45 uM relative to control.
In assay [11] the target is Rho-associated protein kinase 1 (Homo sapiens) (UniProt Q13464). In words: Inhibition of ROCK1 (unknown origin) at 0.45 uM relative to control.
In assay [12] the target is Ribosomal protein S6 kinase alpha-2 (Homo sapiens) (UniProt Q15349). In words: Inhibition of RSK3 (unknown origin) at 0.45 uM relative to control.
Assay [13] deals with Serine/threonine-protein kinase Nek1 (Homo sapiens) (UniProt Q96PY6). The assay can be described thus: Inhibition of NEK1 (unknown origin) at 0.45 uM relative to control.
For assay [14], the target named is Serine/threonine-protein kinase Nek6 (Homo sapiens) (UniProt Q9HC98). The assay can be described thus: Inhibition of NEK6 (unknown origin) at 0.45 uM relative to control.
Assay [15] addresses T2, Calcium/calmodulin-dependent protein kinase type IV (Homo sapiens) (UniProt Q16566).
T2 sequence (whole entry): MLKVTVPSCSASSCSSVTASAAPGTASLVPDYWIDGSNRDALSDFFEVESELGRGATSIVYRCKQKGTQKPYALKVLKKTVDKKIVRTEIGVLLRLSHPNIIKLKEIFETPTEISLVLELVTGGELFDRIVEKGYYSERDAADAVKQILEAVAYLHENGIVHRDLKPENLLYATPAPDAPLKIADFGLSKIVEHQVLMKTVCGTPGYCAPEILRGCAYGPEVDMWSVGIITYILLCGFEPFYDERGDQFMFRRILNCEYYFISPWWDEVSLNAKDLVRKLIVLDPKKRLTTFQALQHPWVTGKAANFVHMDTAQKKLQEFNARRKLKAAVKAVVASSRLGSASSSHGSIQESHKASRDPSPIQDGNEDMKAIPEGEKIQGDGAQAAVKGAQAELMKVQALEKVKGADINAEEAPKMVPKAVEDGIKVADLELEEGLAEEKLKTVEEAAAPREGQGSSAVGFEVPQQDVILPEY
In words: Inhibition of CAMK4 (unknown origin) at 0.45 uM relative to control.

Assay [16] addresses Homeodomain-interacting protein kinase 4 (Homo sapiens) (UniProt Q8NE63). In words: Inhibition of HIPK4 (unknown origin) at 0.45 uM relative to control.
Assay [17] has as its target Mitogen-activated protein kinase 12 (Homo sapiens) (UniProt P53778). In words: Inhibition of p38-gamma (unknown origin) at 0.45 uM relative to control.
The target of assay [18] is Mast/stem cell growth factor receptor Kit (Homo sapiens) (UniProt P10721). In words: Inhibition of KIT (unknown origin) at 0.45 uM relative to control.
Assay [19] addresses Tyrosine-protein kinase Lyn (Homo sapiens) (UniProt P07948). In words: Inhibition of LYNB (unknown origin) at 0.45 uM relative to control.
Assay [20] has as its target Serine/threonine-protein kinase DCLK2 (Homo sapiens) (UniProt Q8N568). In words: Inhibition of DCAMKL2 (unknown origin) at 0.45 uM relative to control.
For assay [21], the system named is Tyrosine-protein kinase ABL1 (Homo sapiens), P00519 [H396P]. The assay can be described thus: Inhibition of Abl H396P mutant (unknown origin) at 0.45 uM relative to control.
Assay [22] has as its system Tyrosine-protein kinase ABL1 (Homo sapiens), P00519 [Q252H]. In words: Inhibition of Abl Q252H mutant (unknown origin) at 0.45 uM relative to control.
The test system of assay [23] is Epidermal growth factor receptor (Homo sapiens), P00533 [T790M]. In words: Inhibition of EGFR T790M mutant (unknown origin) at 0.45 uM relative to control.
Assay [24] has as its target Tyrosine-protein kinase Yes (Homo sapiens) (UniProt P07947). In words: Inhibition of Yes (unknown origin) at 0.45 uM relative to control.
In assay [25] the target is Protein kinase C alpha (Homo sapiens) (UniProt P17252). In words: Inhibition of PKC-alpha (unknown origin) at 0.45 uM relative to control.

By inhibition is commonly meant the drop in the measured response relative to a control, in per cent. Consider `COC(=O)Nc1noc2cc(-c3c(-c4ccccn4)n[nH]c3C)ccc12`, for which the inhibition in assay [1] is -3.3%; in assay [2] it was 2.3%; in [3], 0.7%.
In the case of `Cc1[nH]nc(C2CC2)c1-c1ccc2c(NC(=O)C3CC3)noc2c1`, the inhibition in assay [4] is 0.7%; in assay [5], -10%; in [6], -1%; in assay [7], 6.3%; in assay [8], 2.3%; in assay [9], 5.3%.
As to `Cc1n[nH]c(C)c1-c1ccc2c(NC(=O)c3ccc(N4CCN(C)CC4)cc3)n[nH]c2c1`, the inhibition in assay [10] was 1.3%; in assay [11], -2%; in assay [12], 42.7%; in [13], 3.7%; in assay [14] it was 3.3%; in assay [15], 0%. The inhibition in [16] is 1.3%; in assay [17], 0%; in [18], 24.7%; in assay [19], 24.3%; in assay [20], 7%; in assay [21], 84%. The inhibition in assay [22] stood at 72%; in assay [23], 0.7%; in assay [24], 49%; in [25], 13.7%.
